Reference: patent publication US8691859B2 (priority 2005, dated 2014)
Values after ≈ are worked out from the molar mass of the structure shown.

Experiments:
[1] = system: B. anthracis GFP sterne spores; assay: microbe, parasite or virus in culture; format: cell-based; details: for MIC: Bacillus anthracis, read-out: MIC B. anthracis spores
[2] = system: B. anthracis GFP sterne vegetative cells; assay: microbe, parasite or virus in culture; format: cell-based; details: for MIC: Bacillus anthracis, read-out: MIC B. anthracis vegetative cells
anthrax lethal factor = anthrax lethal factor (Bacillus anthracis, UniProt P15917); format: biochemical
Sequence of anthrax lethal factor (P15917 34-809 limits assumed): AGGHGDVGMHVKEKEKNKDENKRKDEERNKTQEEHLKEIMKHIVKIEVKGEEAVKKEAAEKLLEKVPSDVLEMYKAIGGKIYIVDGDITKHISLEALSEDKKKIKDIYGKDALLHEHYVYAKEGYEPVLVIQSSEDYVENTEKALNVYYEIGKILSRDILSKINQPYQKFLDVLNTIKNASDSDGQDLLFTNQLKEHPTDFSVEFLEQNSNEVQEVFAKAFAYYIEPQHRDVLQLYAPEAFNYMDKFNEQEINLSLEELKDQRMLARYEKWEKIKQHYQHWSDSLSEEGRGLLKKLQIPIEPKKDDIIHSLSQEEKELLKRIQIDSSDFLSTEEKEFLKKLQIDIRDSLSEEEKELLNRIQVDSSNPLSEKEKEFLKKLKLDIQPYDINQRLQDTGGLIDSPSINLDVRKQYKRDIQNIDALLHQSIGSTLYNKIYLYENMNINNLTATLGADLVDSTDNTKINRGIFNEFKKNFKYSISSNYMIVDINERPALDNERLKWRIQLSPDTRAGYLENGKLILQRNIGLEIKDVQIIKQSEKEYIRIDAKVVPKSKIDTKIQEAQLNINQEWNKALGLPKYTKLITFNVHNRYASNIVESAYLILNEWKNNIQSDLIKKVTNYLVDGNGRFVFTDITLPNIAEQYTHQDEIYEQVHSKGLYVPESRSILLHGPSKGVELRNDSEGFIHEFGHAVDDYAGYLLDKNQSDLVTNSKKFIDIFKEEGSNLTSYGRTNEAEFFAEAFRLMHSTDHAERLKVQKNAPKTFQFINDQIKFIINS

Compound | MIC [1] | MIC [2] | inhibition of the protease activity of anthrax lethal factor (anthrax lethal factor) | MIC B. anthracis spores [1] | MIC B. anthracis vegetative cells [2]
Cc1c(/C=C/c2oc3ccc(C(=N)N)cc3c2C)oc2ccc(C(=N)N)cc12 [NSC 266474, 2-[(E)-2-(5-carbamimidoyl-3-methyl-benzofuran-2-yl)ethenyl]-3-methyl-benzofuran-5-carboximidamide] | > 17.8 µg/mL | > 17.8 µg/mL | inhibit | – | –
C/C(=C\c1cc2cc(C(=N)N)ccc2o1)c1cc2cc(C(=N)N)ccc2o1 [NSC 266476, 2-[(E)-1-(5-carbamimidoylbenzofuran-2-yl)prop-1-en-2-yl]benzofuran-5-carboximidamide] | > 17.2 µg/mL | > 17.2 µg/mL | inhibit | – | –
N=C(N)c1ccc2[nH]c(/C=C/c3cc4cc(C(=N)N)ccc4o3)cc2c1 [NSC 290107, 2-[(E)-2-(5-carbamimidoylbenzofuran-2-yl)ethenyl]-1H-indole-5-carboximidamide] | 8.32 µg/mL (≈ 24.2 µM) | > 16.6 µg/mL | inhibit | – | –
C(=C\c1cc2cc(C3=NCCN3)ccc2o1)/c1cc2cc(C3=NCCN3)ccc2[nH]1 [NSC 290108, 5-(4,5-dihydro-1H-imidazol-2-yl)-2-[(E)-2-[5-(4,5-dihydro-1H-imidazol-2-yl)benzofuran-2-yl]ethenyl]-1H-indole] | 18.5 µg/mL (≈ 46.7 µM) | > 18.5 µg/mL | inhibit | – | –
N=C(N)c1ccc2oc(CCc3cc4ccc(C(=N)N)cc4[nH]3)cc2c1 [NSC 290109, 2-[2-(5-carbamimidoylbenzofuran-2-yl)ethyl]-1H-indole-6-carboximidamide] | 8.36 µg/mL (≈ 24.2 µM) | 8.36 µg/mL (≈ 24.2 µM) | inhibit | – | –
N=C(N)c1ccc2cc(/C=C/c3cc4ccc(C(=N)N)cc4o3)[nH]c2c1 [NSC 294200, 2-[(E)-2-(6-carbamimidoylbenzofuran-2-yl)ethenyl]-1H-indole-6-carboximidamide] | 2.08 µg/mL (≈ 6.06 µM) | 4.16 µg/mL (≈ 12.1 µM) | inhibit | – | –
C(=C\c1cc2ccc(C3=NCCN3)cc2o1)/c1cc2ccc(C3=NCCN3)cc2[nH]1 [NSC 294201, 6-(4,5-dihydro-1H-imidazol-2-yl)-2-[(E)-2-[6-(4,5-dihydro-1H-imidazol-2-yl)benzofuran-2-yl]ethenyl]-1H-indole] | 4.68 µg/mL (≈ 11.8 µM) | 18.7 µg/mL (≈ 47.3 µM) | inhibit | – | –
N=C(N)c1ccc2[nH]c(/C=C/c3cc4ccc(C(=N)N)cc4o3)cc2c1 [NSC 294203, 2-[(E)-2-(6-carbamimidoylbenzofuran-2-yl)ethenyl]-1H-indole-5-carboximidamide] | 16.6 µg/mL (≈ 48.5 µM) | > 16.6 µg/mL | inhibit | – | –
C(=C\c1cc2ccc(C3=NCCN3)cc2o1)/c1cc2cc(C3=NCCN3)ccc2[nH]1 [NSC 294204, 5-(4,5-dihydro-1H-imidazol-2-yl)-2-[(E)-2-[6-(4,5-dihydro-1H-imidazol-2-yl)benzofuran-2-yl]ethenyl]-1H-indole] | 18.7 µg/mL (≈ 47.3 µM) | > 18.7 µg/mL | inhibit | – | –
O=C(Nc1ccc(C2=NCCN2)cc1)c1cc2ccc(C3=NCCN3)cc2[nH]1 [NSC 294206, 6-(4,5-dihydro-1H-imidazol-2-yl)-N-[4-(4,5-dihydro-1H-imidazol-2-yl)phenyl]-1H-indole-2-carboxamide] | 8.9 µg/mL (≈ 23.9 µM) | 17.8 µg/mL (≈ 47.8 µM) | inhibit | – | –
N=C(N)c1ccc2oc(/C=C/C=C/c3cc4cc(C(=N)N)ccc4o3)cc2c1 [NSC 300511, 2-[(1E,3E)-4-(5-carbamimidoylbenzofuran-2-yl)buta-1,3-dienyl]benzofuran-5-carboximidamide] | 2.21 µg/mL (≈ 5.98 µM) | 17.7 µg/mL (≈ 47.8 µM) | inhibit | – | –
C(/C=C/c1cc2cc(C3=NCCN3)ccc2o1)=C\c1cc2cc(C3=NCCN3)ccc2o1 [NSC 308571, 2-[2-[(1E,3E)-4-[5-(4,5-dihydro-1H-imidazol-2-yl)benzofuran-2-yl]buta-1,3-dienyl]benzofuran-5-yl]-4,5-dihydro-1H-imidazole] | 9.9 µg/mL (≈ 23.4 µM) | 19.8 µg/mL (≈ 46.9 µM) | inhibit | – | –
N=C(N)c1ccc(/C=C/C=C/c2cc3cc(C(=N)N)ccc3o2)cc1 [NSC 308572, 2-[(1E,3E)-4-(4-carbamimidoylphenyl)buta-1,3-dienyl]benzofuran-5-carboximidamide] | 8.06 µg/mL (≈ 24.4 µM) | 16.1 µg/mL (≈ 48.8 µM) | inhibit | – | –
C(/C=C/c1cc2cc(C3=NCCN3)ccc2o1)=C\c1ccc(C2=NCCN2)cc1 [NSC 308573, 2-[2-[(1E,3E)-4-[4-(4,5-dihydro-1H-imidazol-2-yl)phenyl]buta-1,3-dienyl]benzofuran-5-yl]-4,5-dihydro-1H-imidazole] | 18.2 µg/mL (≈ 47.6 µM) | 18.2 µg/mL (≈ 47.6 µM) | – | – | –
C(=C\c1cc2cc(C3=NCCN3)ccc2s1)/c1ccc(C2=NCCN2)cc1 [NSC 317883, 2-[2-[(E)-2-[4-(4,5-dihydro-1H-imidazol-2-yl)phenyl]ethenyl]benzothiophen-5-yl]-4,5-dihydro-1H-imidazole] | 17.8 µg/mL (≈ 47.8 µM) | 17.8 µg/mL (≈ 47.8 µM) | – | – | –
N=C(N)c1ccc(/C=C/c2cc3cc(C(=N)N)ccc3[nH]2)cc1 [NSC 317884, 2-[(E)-2-(4-carbamimidoylphenyl)ethenyl]-1H-indole-5-carboximidamide] | 15 µg/mL (≈ 49.6 µM) | > 15 µg/mL | inhibit | – | –
C(=C\c1cc2cc(C3=NCCN3)ccc2[nH]1)/c1ccc(C2=NCCN2)cc1 [NSC 317885, 5-(4,5-dihydro-1H-imidazol-2-yl)-2-[(E)-2-[4-(4,5-dihydro-1H-imidazol-2-yl)phenyl]ethenyl]-1H-indole] | > 17.1 µg/mL | > 17.1 µg/mL | inhibit | – | –
N=C(N)c1ccc(/C=C/c2cc3ccc(C(=N)N)cc3[nH]2)cc1 [NSC 317886, 2-[(E)-2-(4-carbamimidoylphenyl)ethenyl]-1H-indole-6-carboximidamide] | 7.52 µg/mL (≈ 24.8 µM) | 15 µg/mL (≈ 49.5 µM) | inhibit | – | –
C(=C\c1cc2ccc(C3=NCCN3)cc2[nH]1)/c1ccc(C2=NCCN2)cc1 [NSC 317887, 6-(4,5-dihydro-1H-imidazol-2-yl)-2-[(E)-2-[4-(4,5-dihydro-1H-imidazol-2-yl)phenyl]ethenyl]-1H-indole] | 8.56 µg/mL (≈ 24.1 µM) | > 17.1 µg/mL | inhibit | – | –
c1cc2cc(-c3cc4ccc(C5=NCCN5)cc4[nH]3)[nH]c2cc1C1=NCCN1 [NSC 330688, 6-(4,5-dihydro-1H-imidazol-2-yl)-2-[6-(4,5-dihydro-1H-imidazol-2-yl)-1H-indol-2-yl]-1H-indole] | 0.551 µg/mL (≈ 1.5 µM) | 1.1 µg/mL (≈ 2.99 µM) | – | – | –
N=C(N)c1ccc2c(c1)=NC(=C(N)N)C=2 [NSC 330689, 2-(diaminomethylidene)indole-6-carboximidamide] | > 11 µg/mL | > 11 µg/mL | – | – | –
C(=C\c1cc2ccc(C3=NCCN3)cc2[nH]1)/c1ccc(Oc2ccc(C3=NCCN3)cc2)cc1 [NSC 330690, 6-(4,5-dihydro-1H-imidazol-2-yl)-2-[(E)-2-[4-[4-(4,5-dihydro-1H-imidazol-2-yl)phenoxy]phenyl]ethenyl]-1H-indole] | 2.6 µg/mL (≈ 5.81 µM) | 2.6 µg/mL (≈ 5.81 µM) | – | – | –
C(=C\c1cc2ccc(C3=NCCN3)cc2[nH]1)/c1ccc2cc(C3=NCCN3)[nH]c2c1 [NSC 341907, 6-(4,5-dihydro-1H-imidazol-2-yl)-2-[(E)-2-[2-(4,5-dihydro-1H-imidazol-2-yl)-1H-indol-6-yl]ethenyl]-1H-indole] | 9.34 µg/mL (≈ 23.7 µM) | 18.7 µg/mL (≈ 47.4 µM) | inhibit | – | –
NC(N)=Nc1ccc(-c2cc3cc(N=C(N)N)ccc3s2)cc1 [NSC 341910, 2-[2-[4-(diaminomethylideneamino)phenyl]benzothiophen-5-yl]guanidine] | 15.9 µg/mL (≈ 48.9 µM) | > 15.9 µg/mL | – | – | –
c1cc(-c2[nH]c3cc(C4=NCCN4)ccc3c2-c2cc3ccc(C4=NCCN4)cc3[nH]2)ccc1C1=NCCN1 [NSC 341911, 6-(4,5-dihydro-1H-imidazol-2-yl)-3-[6-(4,5-dihydro-1H-imidazol-2-yl)-1H-indol-2-yl]-2-[4-(4,5-dihydro-1H-imidazol-2-yl)phenyl]-1H-indole] | – | 24.9 µg/mL (≈ 48.5 µM) | inhibit | 24.88 µg/mL (≈ 48.5 µM) | –
c1cc(-c2[nH]c3cc(C4=NCCN4)ccc3c2-c2cc3ccc(C4=NCCN4)cc3[nH]2)ccc1C1=NCCN1 [NSC 352341, 6-(4,5-dihydro-1H-imidazol-2-yl)-3-[6-(4,5-dihydro-1H-imidazol-2-yl)-1H-indol-2-yl]-2-[4-(4,5-dihydro-1H-imidazol-2-yl)phenyl]-1H-indole] | – | – | – | 6.82 µg/mL (≈ 13.3 µM) | 13.64 µg/mL (≈ 26.6 µM)
c1cc(-c2nc3ccc(-c4nc5ccc(C6=NCCN6)cc5[nH]4)cc3[nH]2)ccc1C1=NCCN1 [NSC 369721, 5-(4,5-dihydro-1H-imidazol-2-yl)-2-[2-[4-(4,5-dihydro-1H-imidazol-2-yl)phenyl]-3H-benzoimidazol-5-yl]-3H-benzoimidazole] | 1.39 µg/mL (≈ 3.11 µM) | 22.3 µg/mL (≈ 49.9 µM) | – | – | –
Glycine, N-acetyl-, compound with 2,2′-(1,{2-ethenediyl)bis[5-benzofurancarboximidamide]} (2:1) [NSC 341082] | – | – | – | >23.16 µg/mL | >23.16 µg/mL
